Reference: US20120309699A1, “COMPOUNDS HAVING ANTI-INFLAMMATORY ACTIVITY” (Consejo Superior de Investigaciones Cientificas (CSIC), priority 2009, published 2012)

Tests used:
Prostaglandin E2 = experiment: Prostaglandins in colonic mucosa (DSS model); assay type: in vivo, mice; details: after DSS; HED 10 mg
Procedure: (§1) A model for intestinal inflammation based on the administration of DSS (sodium dextran sulfate) to C57BL/6 mice was used. At the present time there is no consensus about which overall is the best model for experimental colitis. The DSS model has been widely used because it has clinical, morphological and analytical characteristics which up to a point are similar to those specific to patients with ulcerative colitis or Crohn's disease.
The in vivo inflammation test was carried out using duplicates separated by a number of months. In each test each group of animals (n=8) was fed a standard diet supplemented with 2.3 mg/day/kg (animal weight) of each of the compounds, depending upon the group. […]
• Monitoring of weight, food and drink ingestion. The mice in all groups were individually monitored, with weight, quantity of food ingested and water drunk each day being monitored throughout the experimental test. • Blood and water in feces. The water content of feces, as an indication of diarrhea, was evaluated using the difference in weight following evaporation in a stove. Blood was measured using reactive strips based on the guaiacol-peroxidase reaction (HealthCare Diagnosis Inc.). […] The reaction was measured using a scale from 0 (negative result) to 4 (most intense color change). • Length of colon. After sacrifice the colon was obtained from each mouse, extended and measured. […]

fibrinogen = experiment: Systemic inflammation marker fibrinogen (DSS model); assay type: in vivo, mice; details: vs DSS group; HED 10 mg
Procedure: as §1
The in vivo inflammation test was carried out using duplicates separated by a number of months. In each test each group of animals (n=8) was fed a standard diet supplemented with 2.3 mg/day/kg (animal weight) of each of the compounds, depending upon the group. This dose assumes the ingestion of 0.05 mg/day (50 μg/day) per mouse (having a mean weight of 22 grams). This dose extrapolated to a human being is equivalent to 10 mg in an adult weighing 70 kg; using the formula HED (human equivalent dose)=animal dose in mg/kg×(animal weight kg/human weight in kg)^0.33.
In each test the mice were fed for 3 weeks during which 1% DSS was included in their drink. The DSS was maintained for 8 days (and the same food as from the start). Then the DSS was withdrawn and the animals were allowed to recover for another 6 days (again with the same food).
• Monitoring of weight, food and drink ingestion. The mice in all groups were individually monitored, with weight, quantity of food ingested and water drunk each day being monitored throughout the experimental test. • Blood and water in feces. The water content of feces, as an indication of diarrhea, was evaluated using the difference in weight following evaporation in a stove. Blood was measured using reactive strips based on the guaiacol-peroxidase reaction (HealthCare Diagnosis Inc.). […] The reaction was measured using a scale from 0 (negative result) to 4 (most intense color change). • Length of colon. After sacrifice the colon was obtained from each mouse, extended and measured. […] This was evaluated by spectrophotometry at 460 nm using O-dianisidine reagent and hydrogen peroxide. The change in absorbance at 460 nm was monitored over 10 minutes in a V-630 spectrophotometer (Jasco, Tokyo, Japan). MPO activity was expressed as mU of activity/mg of fresh tissue, comparing the increase in absorbance with a standard straight line obtained using leukocyte myeloperoxidase (Sigma). • Prostaglandins in colonic mucosa. Levels of PGE2 were measured in colonic mucosa homogenates using an immunoenzyme method using a Cayman Chem. kit (USA). • “Antibody array”. […] The signal was detected by chemoluminescence. […] Signal intensities (densitometry) were analyzed using ScanAlyze software. […] The changes in cytokine levels were expressed as mean±SD in arbitrary density units. […]

SMILES | Production of prostaglandins (PGE2) in colonic mucosa (Prostaglandin E2) | Blood fibrinogen levels (fibrinogen)
CCCCCCCC(=O)OCC1OC(Oc2cc(O)cc(/C=C/c3ccc(O)cc3)c2)C(O)C(O)C1O [OCT, trans-resveratrol-3-O-(6′-O-octanoyl)-β-D-glucopyranoside] | best results | most notable differences
CCCC(=O)OCC1OC(Oc2cc(O)cc(/C=C/c3ccc(O)cc3)c2)C(O)C(O)C1O [BUT, trans-resveratrol-3-O-(6′-O-butanoyl)-β-D-glucopyranoside] | best results | most notable differences
